In PubChem BioAssay AID256 (DTP/NCI, 2004):
Several values for one entry are separate records, joined by “and”; a condition that tells them apart may be missing. Equal values may be shown once. Toxic doses and inconclusive results are not listed.

System: CD2F1 mice, L1210 leukemia ip, survival T/C
Assay: NCI In Vivo Anticancer Drug Screen. Data for tumor model L1210 Leukemia (intraperitoneal) in CD2F1 (CDF1) mice
Conditions: higher = longer survival
Method in brief: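 In this screen, transplantable tumors were grown in mice given either the compound or its vehicle. Results were expressed as the treated measurement relative to the control measurement.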

SMILES: NCCCN=c1ccc2c3c1c(O)c1c(O)ccc(=O)c1c3[nH]n2CCNCCO
- T/C (endpoint: median survival time, dose: 0.28 mg/kg/injection, schedule: Q03HX008 (ip), vehicle: saline): 162 % of control
- T/C (endpoint: median survival time, dose: 0.38 mg/kg/injection, schedule: Q03HX024 (ip), vehicle: saline): 174 % of control
- T/C (endpoint: median survival time, dose: 0.45 mg/kg/injection, schedule: Q01DX005 (ip), vehicle: saline): 174 % of control
- T/C (endpoint: median survival time, dose: 0.5 mg/kg/injection, schedule: Q01DX009 (ip), vehicle: saline): 241 % of control
- T/C (endpoint: median survival time, dose: 0.56 mg/kg/injection, schedule: Q03HX008 (ip), vehicle: saline): 174 % of control
- T/C (endpoint: median survival time, dose: 0.75 mg/kg/injection, schedule: Q03HX024 (ip), vehicle: saline): 329 % of control
- T/C (endpoint: median survival time, dose: 0.75 mg/kg/injection, schedule: Q04DX003 (ip), vehicle: saline): 231 % of control
- T/C (endpoint: median survival time, dose: 0.9 mg/kg/injection, schedule: Q01DX005 (ip), vehicle: saline): 198 % of control
- T/C (endpoint: median survival time, dose: 0.9 mg/kg/injection, schedule: Q01DX005 (iv), vehicle: saline): 114 % of control
- T/C (endpoint: median survival time, dose: 1.0 mg/kg/injection, schedule: Q01DX009 (ip), vehicle: saline): 217 % of control
- T/C (endpoint: median survival time, dose: 1.13 mg/kg/injection, schedule: Q03HX008 (ip), vehicle: saline): 731 % of control
- T/C (endpoint: median survival time, dose: 1.5 mg/kg/injection, schedule: Q03HX024 (ip), vehicle: saline): 731 % of control
- T/C (endpoint: median survival time, dose: 1.5 mg/kg/injection, schedule: Q04DX003 (ip), vehicle: saline): 186 % of control
- T/C (endpoint: median survival time, dose: 1.8 mg/kg/injection, schedule: Q01DX005 (ip), vehicle: saline): 219 % of control
- T/C (endpoint: median survival time, dose: 2.0 mg/kg/injection, schedule: Q01DX009 (ip), vehicle: saline): 186 % of control
- T/C (endpoint: median survival time, dose: 2.0 mg/kg/injection, schedule: Q01DX009 (ip), vehicle: water): 170 % of control and 365 % of control
- T/C (endpoint: median survival time, dose: 2.2 mg/kg/injection, schedule: Q01DX001 (iv), vehicle: water): 103 % of control and 111 % of control
- T/C (endpoint: median survival time, dose: 2.25 mg/kg/injection, schedule: Q01DX001 (iv), vehicle: saline): 117 % of control
- T/C (endpoint: median survival time, dose: 2.25 mg/kg/injection, schedule: Q03HX008 (ip), vehicle: saline): 280 % of control
- T/C (endpoint: median survival time, dose: 3.0 mg/kg/injection, schedule: Q03HX024 (ip), vehicle: saline): 731 % of control
- T/C (endpoint: median survival time, dose: 3.0 mg/kg/injection, schedule: Q04DX003 (ip), vehicle: saline): 207 % of control
- T/C (endpoint: median survival time, dose: 3.6 mg/kg/injection, schedule: Q01DX005 (ip), vehicle: saline): 426 % of control
- T/C (endpoint: median survival time, dose: 3.6 mg/kg/injection, schedule: Q01DX005 (iv), vehicle: saline): 158 % of control
- T/C (endpoint: median survival time, dose: 4.0 mg/kg/injection, schedule: Q01DX009 (ip), vehicle: saline): 219 % of control
- T/C (endpoint: median survival time, dose: 4.0 mg/kg/injection, schedule: Q01DX009 (ip), vehicle: water): 183 % of control and 192 % of control and 292 % of control
- T/C (endpoint: median survival time, dose: 4.5 mg/kg/injection, schedule: Q01DX001 (ip), vehicle: saline): 207 % of control
- T/C (endpoint: median survival time, dose: 4.5 mg/kg/injection, schedule: Q01DX001 (ip), vehicle: water): 164 % of control
- T/C (endpoint: median survival time, dose: 4.5 mg/kg/injection, schedule: Q01DX001 (iv), vehicle: saline): 123 % of control
- T/C (endpoint: median survival time, dose: 4.5 mg/kg/injection, schedule: Q01DX001 (iv), vehicle: water): 108 % of control and 112 % of control
- T/C (endpoint: median survival time, dose: 4.5 mg/kg/injection, schedule: Q03HX008 (ip), vehicle: saline): 731 % of control
- T/C (endpoint: median survival time, dose: 6.0 mg/kg/injection, schedule: Q03HX024 (ip), vehicle: saline): 731 % of control
- T/C (endpoint: median survival time, dose: 6.0 mg/kg/injection, schedule: Q04DX003 (ip), vehicle: saline): 243 % of control
- T/C (endpoint: median survival time, dose: 7.2 mg/kg/injection, schedule: Q01DX005 (ip), vehicle: saline): 731 % of control
- T/C (endpoint: median survival time, dose: 7.2 mg/kg/injection, schedule: Q01DX005 (iv), vehicle: saline): 187 % of control
- T/C (endpoint: median survival time, dose: 8.0 mg/kg/injection, schedule: Q01DX009 (ip), vehicle: saline): 329 % of control
- T/C (endpoint: median survival time, dose: 8.0 mg/kg/injection, schedule: Q01DX009 (ip), vehicle: water): 213 % of control and 268 % of control and 333 % of control
- T/C (endpoint: median survival time, dose: 8.0 mg/kg/injection, schedule: Q01DX009 (oral), vehicle: saline): 104 % of control
- T/C (endpoint: median survival time, dose: 9.0 mg/kg/injection, schedule: Q01DX001 (ip), vehicle: saline): 231 % of control
- T/C (endpoint: median survival time, dose: 9.0 mg/kg/injection, schedule: Q01DX001 (ip), vehicle: water): 158 % of control and 183 % of control
- T/C (endpoint: median survival time, dose: 9.0 mg/kg/injection, schedule: Q03HX008 (ip), vehicle: saline): 731 % of control
- T/C (endpoint: median survival time, dose: 12.0 mg/kg/injection, schedule: Q03HX024 (ip), vehicle: saline): 107 % of control
- T/C (endpoint: median survival time, dose: 12.0 mg/kg/injection, schedule: Q04DX003 (ip), vehicle: saline): 731 % of control
- T/C (endpoint: median survival time, dose: 14.4 mg/kg/injection, schedule: Q01DX005 (ip), vehicle: saline): 731 % of control
- T/C (endpoint: median survival time, dose: 16.0 mg/kg/injection, schedule: Q01DX009 (ip), vehicle: saline): 280 % of control
- T/C (endpoint: median survival time, dose: 16.0 mg/kg/injection, schedule: Q01DX009 (ip), vehicle: water): 196 % of control and 337 % of control and 365 % of control
- T/C (endpoint: median survival time, dose: 16.0 mg/kg/injection, schedule: Q01DX009 (oral), vehicle: saline): 101 % of control
- T/C (endpoint: median survival time, dose: 18.0 mg/kg/injection, schedule: Q01DX001 (ip), vehicle: saline): 268 % of control
- T/C (endpoint: median survival time, dose: 18.0 mg/kg/injection, schedule: Q01DX001 (ip), vehicle: water): 216 % of control and 666 % of control
- T/C (endpoint: median survival time, dose: 18.0 mg/kg/injection, schedule: Q01DX001 (iv), vehicle: saline): 162 % of control
- T/C (endpoint: median survival time, dose: 18.0 mg/kg/injection, schedule: Q03HX008 (ip), vehicle: saline): 365 % of control
- T/C (endpoint: median survival time, dose: 24.0 mg/kg/injection, schedule: Q04DX003 (ip), vehicle: saline): 731 % of control
- T/C (endpoint: median survival time, dose: 28.8 mg/kg/injection, schedule: Q01DX005 (ip), vehicle: saline): 731 % of control
- T/C (endpoint: median survival time, dose: 28.8 mg/kg/injection, schedule: Q01DX005 (iv), vehicle: saline): 104 % of control
- T/C (endpoint: median survival time, dose: 32.0 mg/kg/injection, schedule: Q01DX009 (ip), vehicle: saline): 113 % of control
- T/C (endpoint: median survival time, dose: 32.0 mg/kg/injection, schedule: Q01DX009 (ip), vehicle: water): 114 % of control and 119 % of control and 88 % of control
- T/C (endpoint: median survival time, dose: 32.0 mg/kg/injection, schedule: Q01DX009 (oral), vehicle: saline): 107 % of control
- T/C (endpoint: median survival time, dose: 36.0 mg/kg/injection, schedule: Q01DX001 (ip), vehicle: saline): 731 % of control
- T/C (endpoint: median survival time, dose: 36.0 mg/kg/injection, schedule: Q01DX001 (ip), vehicle: water): 208 % of control and 466 % of control
- T/C (endpoint: median survival time, dose: 36.0 mg/kg/injection, schedule: Q01DX001 (iv), vehicle: saline): 192 % of control
- T/C (endpoint: median survival time, dose: 36.0 mg/kg/injection, schedule: Q01DX001 (iv), vehicle: water): 152 % of control
- T/C (endpoint: median survival time, dose: 48.0 mg/kg/injection, schedule: Q04DX003 (ip), vehicle: saline): 731 % of control
- T/C (endpoint: median survival time, dose: 64.0 mg/kg/injection, schedule: Q01DX009 (ip), vehicle: saline): 90 % of control
- T/C (endpoint: median survival time, dose: 64.0 mg/kg/injection, schedule: Q01DX009 (oral), vehicle: saline): 101 % of control
- T/C (endpoint: median survival time, dose: 72.0 mg/kg/injection, schedule: Q01DX001 (ip), vehicle: saline): 731 % of control
- T/C (endpoint: median survival time, dose: 72.0 mg/kg/injection, schedule: Q01DX001 (ip), vehicle: water): 666 % of control
- T/C (endpoint: median survival time, dose: 96.0 mg/kg/injection, schedule: Q04DX003 (ip), vehicle: saline): 219 % of control
- T/C (endpoint: median survival time, dose: 128.0 mg/kg/injection, schedule: Q01DX009 (oral), vehicle: saline): 102 % of control
- T/C (endpoint: median survival time, dose: 144.0 mg/kg/injection, schedule: Q01DX001 (ip), vehicle: saline): 731 % of control
- T/C (endpoint: median survival time, dose: 144.0 mg/kg/injection, schedule: Q01DX001 (ip), vehicle: water): 666 % of control

SMILES: OCCN=Cc1ccc(OCc2ccccc2)c(OCc2ccccc2)c1
- T/C (endpoint: median survival time, dose: 50.0 mg/kg/injection, schedule: Q04DX002 (ip), vehicle: saline with Tween-80): 100 % of control
- T/C (endpoint: median survival time, dose: 100.0 mg/kg/injection, schedule: Q04DX002 (ip), vehicle: saline with Tween-80): 111 % of control
- T/C (endpoint: median survival time, dose: 200.0 mg/kg/injection, schedule: Q04DX002 (ip), vehicle: saline with Tween-80): 88 % of control
- T/C (endpoint: median survival time, dose: 400.0 mg/kg/injection, schedule: Q04DX002 (ip), vehicle: saline with Tween-80): 100 % of control

SMILES: O=c1[nH]c(-c2ccccc2)nc(Cc2ccccc2)c1CCO
- T/C (endpoint: mean survival time, dose: 100.0 mg/kg/injection, schedule: Q04DX003 (ip), vehicle: saline with Tween-80): 89 % of control
- T/C (endpoint: mean survival time, dose: 200.0 mg/kg/injection, schedule: Q04DX003 (ip), vehicle: saline with Tween-80): 89 % of control
- T/C (endpoint: mean survival time, dose: 400.0 mg/kg/injection, schedule: Q04DX003 (ip), vehicle: saline with Tween-80): 91 % of control
